Activity calls are given as the source filed them.
Legend:
[1] = biological target: Cytochrome P450 3A4 (Homo sapiens, UniProt P08684); settings: Potency;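 also: confirmatory qHTS run detecting inhibitors and substrates of CYP3A4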
[2] = cells; type: functional, cell-based
[3] = biological target: Luciferin 4-monooxygenase (Photinus pyralis, UniProt P08659); experiment: firefly luciferase enzyme inhibitors, dose response, biochemical, luminescence (AID 1891)
[4] = Luminescence Cell-Based Dose Confirmation HTS to Identify Inhibitors of Platelet Dense Granule Release. [Related pubchem assays: 1663 (Primary HTS), 1678 (Summary of Project)]; type: functional
[5] = cells; type: functional, cell-based; remark: listed apart in the source
[6] = biological target: Genome polyprotein (dengue virus type 2, UniProt P29990); experiment: Dengue-2 NS5 methyltransferase inhibitors, primary screen, biochemical, confirmation dose response (AID 588689); type: functional
[7] = biological target: T1, Fatty acid synthase (Homo sapiens, UniProt P49327); experiment: FAS thioesterase domain inhibitors, dose response, biochemical, endpoint fluorescence intensity, uHTS hits (AID 624327); type: functional;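 also: fluorescence from hydrolysis of an O-methyl fluorescein acyl ester substrate by the enzyme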
[8] = biological target: T1, Fatty acid synthase; experiment: FAS thioesterase domain inhibitors, dose response, biochemical, kinetic fluorescence intensity (AID 624326); type: functional;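 also: rate of fluorescence rise from hydrolysis of a fluorogenic O-methyl fluorescein ester substrate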
[9] = biological target: T2, Streptokinase A (Streptococcus pyogenes serotype M1, UniProt P10520); experiment: S. pyogenes streptokinase expression inhibitors, potency, dose response, plasminogen activation absorbance, OD405 (AID 1914); type: functional, Streptococcus pyogenes M1 GAS;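 also: secreted streptokinase activity via plasminogen activation per viability signal from cell pellet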
T2 sequence (P10520 whole entry): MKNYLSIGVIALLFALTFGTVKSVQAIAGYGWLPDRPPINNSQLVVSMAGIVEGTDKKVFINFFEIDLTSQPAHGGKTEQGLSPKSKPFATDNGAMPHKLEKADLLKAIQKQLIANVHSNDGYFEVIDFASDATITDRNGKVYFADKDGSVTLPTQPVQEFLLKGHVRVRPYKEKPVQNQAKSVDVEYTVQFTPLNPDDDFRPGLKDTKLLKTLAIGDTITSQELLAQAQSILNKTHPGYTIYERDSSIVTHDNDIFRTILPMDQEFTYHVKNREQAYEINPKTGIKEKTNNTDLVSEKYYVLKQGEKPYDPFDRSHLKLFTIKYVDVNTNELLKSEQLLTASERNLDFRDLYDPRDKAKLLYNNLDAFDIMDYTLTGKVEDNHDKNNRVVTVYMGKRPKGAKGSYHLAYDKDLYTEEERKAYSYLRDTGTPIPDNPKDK

[10] = biological target: G-protein coupled receptor 55 (Homo sapiens, UniProt Q9Y2T6); experiment: GPR55 antagonists blocking LPI-driven arrestin recruitment, primary screen, imaging, U2OS, beta-arrestin-GFP, LPI agonist (AID 2013); type: functional;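 also: antagonist potency measured as reduced agonist-driven arrestin aggregation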
[11] = test system: Streptococcus; experiment: Group A Streptococcus viability loss, dose response, counter-screen for streptokinase expression inhibitor project, luminescence, BacTiterGlo (AID 1915); type: functional, organism-based;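 also: potency for reduction of bacterial viability or growth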
[12] = growth suppression of PTEN-null colon cells, dose response, cell-based, HCT116 PTEN knockout (AID 1047); type: functional;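 also: HCT116 colon tumor cells with PTEN knocked out; cells exposed to compound for 60 hours before readout; potency for loss of cell viability measured by luminescence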
[13] = growth suppression of beta-catenin-knockout colon cells, dose response, cell-based, HCT116, human colon tumor (AID 1045); type: functional;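 also: HCT116 colon tumor cells with beta catenin knocked out; cells exposed to compound for 60 hours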
[14] = biological target: T3, Heat shock factor protein 1 (Mus musculus, UniProt P38532); experiment: HSF1 potentiators in luciferase reporter cells, confirmation, cell-based, NIH3T3, luminescence, dose retest (AID 435004); type: functional;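 also: stress induced by proteasome inhibitor MG132 added 30 min after compound; luciferase reporter driven by HSF1 response element in NIH3T3 cells; actives raise luminescence as potentiators of the MG132 stress response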
T3 sequence (P38532 whole entry): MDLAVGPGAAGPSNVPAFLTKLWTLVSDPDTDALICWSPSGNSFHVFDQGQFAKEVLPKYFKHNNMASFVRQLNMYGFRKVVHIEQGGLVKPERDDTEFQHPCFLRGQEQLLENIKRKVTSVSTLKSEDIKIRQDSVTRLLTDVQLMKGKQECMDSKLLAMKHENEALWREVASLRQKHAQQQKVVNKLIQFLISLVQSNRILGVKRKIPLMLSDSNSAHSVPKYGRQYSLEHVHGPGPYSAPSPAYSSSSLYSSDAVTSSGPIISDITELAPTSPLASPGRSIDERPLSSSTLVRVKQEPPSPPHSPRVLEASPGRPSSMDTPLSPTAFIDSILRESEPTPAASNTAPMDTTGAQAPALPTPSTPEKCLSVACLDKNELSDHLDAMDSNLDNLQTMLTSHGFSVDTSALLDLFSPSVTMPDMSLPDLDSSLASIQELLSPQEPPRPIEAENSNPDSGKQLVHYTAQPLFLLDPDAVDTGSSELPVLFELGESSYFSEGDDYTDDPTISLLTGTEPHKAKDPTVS

[15] = biological target: T4, Corticotropin-releasing factor receptor 2/Corticotropin-releasing factor-binding protein (Homo sapiens, UniProt P24387+Q13324); experiment: Dose Response confirmation of uHTS hits for small molecule antagonists of the CRF-binding protein and CRF-R2 receptor complex.; type: functional; settings: read-out: IC50_Mean
T4 sequence (Q13324 whole entry): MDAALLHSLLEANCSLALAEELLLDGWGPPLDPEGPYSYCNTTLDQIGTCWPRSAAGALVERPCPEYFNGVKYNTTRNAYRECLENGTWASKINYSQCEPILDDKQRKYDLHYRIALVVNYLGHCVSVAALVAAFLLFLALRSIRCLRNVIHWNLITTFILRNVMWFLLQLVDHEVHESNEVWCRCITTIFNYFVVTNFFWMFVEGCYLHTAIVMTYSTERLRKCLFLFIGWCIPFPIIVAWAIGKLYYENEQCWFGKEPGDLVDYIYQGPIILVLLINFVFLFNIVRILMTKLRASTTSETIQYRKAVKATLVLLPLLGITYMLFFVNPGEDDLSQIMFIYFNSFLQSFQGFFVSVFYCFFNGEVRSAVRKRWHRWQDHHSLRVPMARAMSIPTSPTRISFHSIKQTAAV
T4 sequence (P24387 whole entry): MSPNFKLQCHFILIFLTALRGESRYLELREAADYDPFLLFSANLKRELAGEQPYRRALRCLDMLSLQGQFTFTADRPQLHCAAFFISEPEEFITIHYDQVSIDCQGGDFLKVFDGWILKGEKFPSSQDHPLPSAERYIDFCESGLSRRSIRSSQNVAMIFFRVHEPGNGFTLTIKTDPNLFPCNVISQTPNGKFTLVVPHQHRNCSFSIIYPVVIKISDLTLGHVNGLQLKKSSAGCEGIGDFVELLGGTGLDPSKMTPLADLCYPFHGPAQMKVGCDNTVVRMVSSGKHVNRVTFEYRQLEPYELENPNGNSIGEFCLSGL

[16] = biological target: T4, Corticotropin-releasing factor receptor 2/Corticotropin-releasing factor-binding protein; experiment: activators of CRF receptor 2 with binding protein – uHTS hits, confirmation (AID 602473); type: functional; settings: read-out: EC50_Mean
[17] = THP-1 cell cytotoxicity, dose response, cytotoxicity control for non-replicating M. tuberculosis project (AID 489025); type: functional
[18] = biological target: T5, Replicative DNA helicase DnaB (Mycobacterium tuberculosis, UniProt P9WMR3); experiment: DnaB intein splicing inhibitors, dose response, biochemical, cell-free fluorescence (AID 449749); type: functional
T5 sequence (P9WMR3 whole entry): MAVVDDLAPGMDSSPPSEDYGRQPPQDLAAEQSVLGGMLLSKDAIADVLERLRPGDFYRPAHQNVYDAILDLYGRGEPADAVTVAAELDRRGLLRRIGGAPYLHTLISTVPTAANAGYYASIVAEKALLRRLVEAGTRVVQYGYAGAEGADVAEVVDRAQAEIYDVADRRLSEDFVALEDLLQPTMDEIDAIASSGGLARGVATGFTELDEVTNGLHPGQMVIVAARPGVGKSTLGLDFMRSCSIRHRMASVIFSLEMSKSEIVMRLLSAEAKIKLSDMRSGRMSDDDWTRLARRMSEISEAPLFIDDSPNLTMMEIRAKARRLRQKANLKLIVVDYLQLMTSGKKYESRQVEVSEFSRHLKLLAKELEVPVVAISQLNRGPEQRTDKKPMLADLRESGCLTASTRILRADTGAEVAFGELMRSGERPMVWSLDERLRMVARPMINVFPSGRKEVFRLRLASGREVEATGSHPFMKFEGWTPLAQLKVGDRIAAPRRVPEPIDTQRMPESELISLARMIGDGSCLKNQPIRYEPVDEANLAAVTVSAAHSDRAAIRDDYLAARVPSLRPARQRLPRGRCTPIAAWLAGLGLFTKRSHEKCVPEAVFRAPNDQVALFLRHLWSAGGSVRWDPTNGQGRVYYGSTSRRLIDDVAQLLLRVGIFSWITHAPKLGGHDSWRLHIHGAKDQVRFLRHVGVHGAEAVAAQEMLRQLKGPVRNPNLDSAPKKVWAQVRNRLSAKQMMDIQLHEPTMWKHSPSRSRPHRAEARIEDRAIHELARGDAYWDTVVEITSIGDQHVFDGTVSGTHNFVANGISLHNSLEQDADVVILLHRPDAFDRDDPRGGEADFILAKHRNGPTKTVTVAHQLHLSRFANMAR

[19] = biological target: T6, Protein RecA (Mycobacterium tuberculosis, UniProt P9WHJ3); experiment: Fluorescence Cell-Free Homogeneous Dose Retest to Identify Inhibitors of RecA-Intein Splicing Activity. [Related pubchem assays (depositor defined):AID2097, AID2223, AID489010, AID492950]; type: functional
T6 sequence (P9WHJ3 whole entry): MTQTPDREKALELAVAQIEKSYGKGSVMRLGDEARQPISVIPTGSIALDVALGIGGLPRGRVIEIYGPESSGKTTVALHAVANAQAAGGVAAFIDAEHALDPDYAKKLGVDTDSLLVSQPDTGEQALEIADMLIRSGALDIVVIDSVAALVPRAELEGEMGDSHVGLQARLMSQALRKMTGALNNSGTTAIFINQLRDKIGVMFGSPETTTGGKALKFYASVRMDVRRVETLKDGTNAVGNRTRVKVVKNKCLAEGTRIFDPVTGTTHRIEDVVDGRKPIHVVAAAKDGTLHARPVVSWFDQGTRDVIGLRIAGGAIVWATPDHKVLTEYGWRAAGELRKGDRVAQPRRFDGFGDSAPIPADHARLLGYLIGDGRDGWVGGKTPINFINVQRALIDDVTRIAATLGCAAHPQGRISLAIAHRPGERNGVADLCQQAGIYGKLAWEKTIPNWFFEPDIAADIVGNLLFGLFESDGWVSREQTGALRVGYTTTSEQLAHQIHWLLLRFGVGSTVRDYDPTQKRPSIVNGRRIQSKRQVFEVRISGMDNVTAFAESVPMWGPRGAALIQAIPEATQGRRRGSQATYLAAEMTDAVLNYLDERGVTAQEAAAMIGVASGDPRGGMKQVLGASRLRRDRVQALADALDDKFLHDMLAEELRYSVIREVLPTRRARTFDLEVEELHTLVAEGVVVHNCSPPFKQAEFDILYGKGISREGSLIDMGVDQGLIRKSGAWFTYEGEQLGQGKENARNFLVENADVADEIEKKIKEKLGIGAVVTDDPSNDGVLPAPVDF

[20] = Luminescence Cell-Based Dose Confirmation HTS to Identify Activators of 5'UTR Stem-Loop Driven Alpha-Synuclein mRNA Translation in H4 Neuroglioblastoma Cells. [Related pubchem assays: 1829 (Project Summary), 1814 (Primary HTS)]; type: functional
[21] = Luminescence Cell-Based Dose Response HTS to Identify Activators of Luciferase Translation or Activity in H4 […] Cells. [Related pubchem assays: 1829 (Project Summary), 1814 (Primary HTS)]; type: functional
[22] = test system: H4; experiment: Luminescence Cell-Based Dose Response HTS to Identify Activators of 5'UTR Stem-Loop Driven Prion Protein mRNA Translation in H4 Neuroglioblastoma Cells. [Related pubchem assays: 1829 (Project Summary), 1814 (Primary HTS)]; type: functional; settings: Homo sapiens

Sequence of Cytochrome P450 3A4 (P08684 whole entry): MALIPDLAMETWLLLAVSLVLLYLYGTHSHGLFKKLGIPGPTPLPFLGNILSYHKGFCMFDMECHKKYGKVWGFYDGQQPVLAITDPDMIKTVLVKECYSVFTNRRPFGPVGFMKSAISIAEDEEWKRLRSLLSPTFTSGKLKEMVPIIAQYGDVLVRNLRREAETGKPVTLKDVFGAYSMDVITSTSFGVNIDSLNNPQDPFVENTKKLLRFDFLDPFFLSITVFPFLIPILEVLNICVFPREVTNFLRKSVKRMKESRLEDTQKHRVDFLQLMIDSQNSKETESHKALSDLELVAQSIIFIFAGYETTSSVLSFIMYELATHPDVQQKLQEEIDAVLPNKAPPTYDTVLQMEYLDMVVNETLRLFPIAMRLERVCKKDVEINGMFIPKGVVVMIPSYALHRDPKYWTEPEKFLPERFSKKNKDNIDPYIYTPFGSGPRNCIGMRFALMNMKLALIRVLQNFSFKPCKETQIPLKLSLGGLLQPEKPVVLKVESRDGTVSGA
Sequence of G-protein coupled receptor 55 (Q9Y2T6 whole entry): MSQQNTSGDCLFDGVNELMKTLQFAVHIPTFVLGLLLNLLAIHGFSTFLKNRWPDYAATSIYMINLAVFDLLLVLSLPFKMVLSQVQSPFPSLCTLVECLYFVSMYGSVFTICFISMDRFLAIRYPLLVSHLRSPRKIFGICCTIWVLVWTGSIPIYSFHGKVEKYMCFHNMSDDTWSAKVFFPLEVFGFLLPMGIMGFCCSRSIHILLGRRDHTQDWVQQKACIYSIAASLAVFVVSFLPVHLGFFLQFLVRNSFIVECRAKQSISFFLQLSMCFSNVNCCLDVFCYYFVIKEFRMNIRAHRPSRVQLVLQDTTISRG
T1 sequence (P49327 whole entry, the tested form may be a part): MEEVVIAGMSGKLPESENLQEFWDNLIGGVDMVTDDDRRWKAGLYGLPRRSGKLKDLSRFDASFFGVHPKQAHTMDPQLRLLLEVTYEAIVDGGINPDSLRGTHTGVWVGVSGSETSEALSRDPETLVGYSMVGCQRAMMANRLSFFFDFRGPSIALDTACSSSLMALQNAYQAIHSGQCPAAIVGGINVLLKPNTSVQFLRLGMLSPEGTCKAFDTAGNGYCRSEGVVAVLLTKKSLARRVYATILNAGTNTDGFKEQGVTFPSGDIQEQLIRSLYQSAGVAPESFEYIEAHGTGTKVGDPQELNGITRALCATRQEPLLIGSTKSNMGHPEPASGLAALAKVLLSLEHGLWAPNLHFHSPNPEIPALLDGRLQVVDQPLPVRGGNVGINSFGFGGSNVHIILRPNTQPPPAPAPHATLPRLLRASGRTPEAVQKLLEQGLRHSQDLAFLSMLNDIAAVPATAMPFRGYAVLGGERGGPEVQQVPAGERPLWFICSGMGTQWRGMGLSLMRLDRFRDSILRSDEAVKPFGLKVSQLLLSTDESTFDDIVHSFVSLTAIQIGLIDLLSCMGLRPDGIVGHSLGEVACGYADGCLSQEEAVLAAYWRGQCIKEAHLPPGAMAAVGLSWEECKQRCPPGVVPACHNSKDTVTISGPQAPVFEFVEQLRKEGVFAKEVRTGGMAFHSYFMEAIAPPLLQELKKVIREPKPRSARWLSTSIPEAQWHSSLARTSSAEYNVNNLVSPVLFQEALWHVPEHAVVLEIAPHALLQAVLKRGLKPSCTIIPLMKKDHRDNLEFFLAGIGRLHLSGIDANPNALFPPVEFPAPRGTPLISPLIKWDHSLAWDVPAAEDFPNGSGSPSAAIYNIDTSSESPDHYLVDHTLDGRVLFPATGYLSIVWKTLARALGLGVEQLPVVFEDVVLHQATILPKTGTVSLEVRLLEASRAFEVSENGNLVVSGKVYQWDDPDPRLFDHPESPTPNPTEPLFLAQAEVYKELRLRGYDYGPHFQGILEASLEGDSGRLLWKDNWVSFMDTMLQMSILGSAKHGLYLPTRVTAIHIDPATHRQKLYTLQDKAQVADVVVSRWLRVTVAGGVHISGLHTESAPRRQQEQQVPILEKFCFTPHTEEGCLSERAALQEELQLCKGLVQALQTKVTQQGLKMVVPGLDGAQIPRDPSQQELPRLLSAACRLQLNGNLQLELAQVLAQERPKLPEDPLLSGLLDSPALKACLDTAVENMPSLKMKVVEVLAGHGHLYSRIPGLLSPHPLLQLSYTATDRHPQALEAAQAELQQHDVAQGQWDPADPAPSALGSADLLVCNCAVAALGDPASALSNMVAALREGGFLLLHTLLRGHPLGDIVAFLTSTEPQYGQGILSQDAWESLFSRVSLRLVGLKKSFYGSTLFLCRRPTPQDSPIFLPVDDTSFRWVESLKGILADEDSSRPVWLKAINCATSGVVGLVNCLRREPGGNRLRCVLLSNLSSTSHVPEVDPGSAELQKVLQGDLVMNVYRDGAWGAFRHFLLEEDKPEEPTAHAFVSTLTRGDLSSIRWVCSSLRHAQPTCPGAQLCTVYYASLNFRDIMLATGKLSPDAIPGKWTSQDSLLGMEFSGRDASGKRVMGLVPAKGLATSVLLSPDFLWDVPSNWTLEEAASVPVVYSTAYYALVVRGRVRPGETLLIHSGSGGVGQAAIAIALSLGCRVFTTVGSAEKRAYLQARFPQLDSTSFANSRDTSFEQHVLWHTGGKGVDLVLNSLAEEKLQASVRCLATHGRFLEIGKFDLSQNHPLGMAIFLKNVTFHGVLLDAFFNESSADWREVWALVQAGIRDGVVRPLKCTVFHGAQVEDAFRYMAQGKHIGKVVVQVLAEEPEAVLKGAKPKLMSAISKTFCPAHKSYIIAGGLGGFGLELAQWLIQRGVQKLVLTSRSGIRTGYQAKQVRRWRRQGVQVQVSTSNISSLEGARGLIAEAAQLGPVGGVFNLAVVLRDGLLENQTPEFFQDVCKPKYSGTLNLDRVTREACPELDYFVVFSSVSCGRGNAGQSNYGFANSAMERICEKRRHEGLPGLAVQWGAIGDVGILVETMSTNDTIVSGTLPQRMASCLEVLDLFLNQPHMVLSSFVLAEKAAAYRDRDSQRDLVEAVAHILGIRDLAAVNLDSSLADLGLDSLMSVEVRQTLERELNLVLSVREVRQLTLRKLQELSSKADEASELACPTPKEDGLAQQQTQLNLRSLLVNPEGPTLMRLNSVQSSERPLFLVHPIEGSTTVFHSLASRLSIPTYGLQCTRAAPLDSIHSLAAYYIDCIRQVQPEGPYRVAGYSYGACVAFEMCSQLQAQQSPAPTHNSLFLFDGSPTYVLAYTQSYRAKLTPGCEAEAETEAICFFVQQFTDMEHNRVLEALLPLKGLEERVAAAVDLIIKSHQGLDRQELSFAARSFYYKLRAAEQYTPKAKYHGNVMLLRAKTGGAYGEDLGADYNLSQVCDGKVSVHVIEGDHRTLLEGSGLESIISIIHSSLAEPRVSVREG
Sequence of Luciferin 4-monooxygenase (P08659 whole entry): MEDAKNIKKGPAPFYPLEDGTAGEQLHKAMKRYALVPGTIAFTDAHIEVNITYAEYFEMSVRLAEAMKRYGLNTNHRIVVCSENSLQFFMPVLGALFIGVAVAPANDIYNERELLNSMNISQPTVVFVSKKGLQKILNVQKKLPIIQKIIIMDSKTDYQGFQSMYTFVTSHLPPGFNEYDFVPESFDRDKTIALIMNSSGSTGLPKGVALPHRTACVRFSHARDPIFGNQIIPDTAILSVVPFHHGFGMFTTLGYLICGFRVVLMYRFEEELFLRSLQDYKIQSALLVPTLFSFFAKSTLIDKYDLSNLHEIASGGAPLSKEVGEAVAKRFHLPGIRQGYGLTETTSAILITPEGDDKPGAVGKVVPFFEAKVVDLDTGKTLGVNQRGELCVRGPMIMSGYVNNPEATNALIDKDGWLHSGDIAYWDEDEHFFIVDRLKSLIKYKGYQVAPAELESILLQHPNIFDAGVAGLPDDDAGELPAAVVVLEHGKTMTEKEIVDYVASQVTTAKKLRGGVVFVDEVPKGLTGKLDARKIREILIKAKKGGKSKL
Sequence of Genome polyprotein (P29990 2492-3391 limits assumed): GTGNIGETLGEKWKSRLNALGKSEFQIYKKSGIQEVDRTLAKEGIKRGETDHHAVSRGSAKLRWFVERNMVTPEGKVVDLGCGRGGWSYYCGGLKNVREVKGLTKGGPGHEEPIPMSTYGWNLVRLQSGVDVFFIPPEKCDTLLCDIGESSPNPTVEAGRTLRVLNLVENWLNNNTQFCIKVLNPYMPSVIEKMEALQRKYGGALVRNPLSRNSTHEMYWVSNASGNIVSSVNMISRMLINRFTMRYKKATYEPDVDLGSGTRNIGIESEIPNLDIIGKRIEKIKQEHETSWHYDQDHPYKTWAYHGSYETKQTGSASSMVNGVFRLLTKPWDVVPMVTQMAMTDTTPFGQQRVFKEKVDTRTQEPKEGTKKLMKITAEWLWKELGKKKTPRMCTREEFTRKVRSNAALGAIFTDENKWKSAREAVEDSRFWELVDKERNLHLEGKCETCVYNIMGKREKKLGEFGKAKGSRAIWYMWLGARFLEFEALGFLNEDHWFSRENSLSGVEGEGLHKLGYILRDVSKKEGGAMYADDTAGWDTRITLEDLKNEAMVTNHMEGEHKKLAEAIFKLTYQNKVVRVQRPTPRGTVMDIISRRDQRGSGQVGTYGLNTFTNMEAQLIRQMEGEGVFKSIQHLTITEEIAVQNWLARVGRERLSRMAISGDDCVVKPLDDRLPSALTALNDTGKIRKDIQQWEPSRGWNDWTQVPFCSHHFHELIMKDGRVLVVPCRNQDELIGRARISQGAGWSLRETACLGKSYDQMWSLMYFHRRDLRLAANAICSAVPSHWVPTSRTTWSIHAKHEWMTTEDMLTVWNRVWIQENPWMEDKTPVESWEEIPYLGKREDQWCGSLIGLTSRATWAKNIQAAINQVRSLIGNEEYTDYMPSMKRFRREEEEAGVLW

COC(=O)[C@@]1(C)C[C@@H]1[C@@H](NC(=O)[C@@]1(C)C[C@@H]1[C@@H](NC(=O)[C@@]1(C)C[C@@H]1[C@@H](NC(=O)[C@@]1(C)C[C@@H]1[C@@H](NC(=O)OCc1ccccc1)c1ccccc1)c1ccccc1)c1ccccc1)c1ccccc1
AC50 [1]: 0.2 µM (inconclusive)

Cc1cc(S(=O)(=O)ON2C(=O)c3ccccc3C2=O)ccc1F
EC50 [2]: > 350 µM (not active) | EC50 [3]: > 112 µM (not active) | EC50 [4]: > 112 µM (not active) | EC50 [5]: > 350 µM (not active) | IC50 [6]: > 100 µM (active) | IC50 [7]: 2.43 µM (active) | IC50 [8]: 2.07 µM (active)

COC(=O)c1c(NC(NC(=O)C(C)(C)C)C(Cl)(Cl)Cl)sc2c1CCC2 (stereo unspecified)
EC50 [9]: 2.8 µM (active) | IC50 [10]: 2.01 µM (active) | EC50 [11]: 20.3 µM (active)

CCCn1c(-c2ccc(F)cc2)nc2c(N(C)CCN(C)C)nc(C)nc21
AC50 [1]: 25.1 µM (inconclusive)

CCOC(=O)C(C)(C)N(Cc1ccc(C)cc1)S(=O)(=O)c1ccc(Cl)c([N+](=O)[O-])c1
IC50 [10]: 3.61 µM (active) | EC50 [12]: 17.7 µM (active) | EC50 [13]: 15.3 µM (active) | EC50 [14]: 20.1 µM (active) | IC50 [15]: > 47.1 µM (inactive) | EC50 [16]: > 53 µM (inactive)

CCCCC(CC)COCCCN (stereo unspecified)
AC50 [1]: 31.6 µM (inconclusive)

COc1ccc(CNCc2cc3c(C(C)(C)C)nn(-c4ccccc4)c3[nH]c2=O)cc1
IC50 [10]: 2.18 µM (active)

CC1(C)C2(Cl)C(Cl)C(Cl)C(Cl)(C(Cl)Cl)C1(Cl)C2Cl (stereo unspecified) [STROBANE]
AC50 [1]: 15.8 µM (inconclusive)

COC(=O)c1ccc(CN2[C@H](C(=O)OC)C[C@@]3(O)[C@H](O)[C@H](O)[C@H](O)C[C@@H]23)cc1
AC50 [1]: 12.6 µM (inconclusive)

O=S(=O)(Nc1ccc(O)c2ccccc12)c1ccc(F)cc1
CC50 [17]: > 40 µM (active) | AC50 [18]: 214 nM (active) | EC50 [19]: 46.6 nM (active)

N=C(NOC(=O)Cc1cccs1)c1ccccc1
EC50 [20]: 3.81 µM (active) | EC50 [21]: 11.1 µM (active) | EC50 [2]: > 350 µM (not active) | EC50 [22]: 9.96 µM (active) | EC50 [5]: 20.7 µM (active)

COc1c(O)cc2c(-c3ccccc3)cc(=O)oc2c1OC [KUHLMANNIN]
AC50 [1]: 31.6 µM (inconclusive)
